Molecular target: T1, BRM (Homo sapiens, UniProt P51531)
T1 construct: In-Cell Western Screen of BRM Degradation in SW1573 Cells; endogenous in cells; host or cells: SW1573
Experiment: In-cell Western screen of BRM degradation in SW1573 cells (Dmax and DC50)
Type: cell-based
Settings: for Dmax: SW1573, % degraded, when tested at the top concentration of between 0.3 and 10 μM, read-out: BRM Dmax (%); for DC50: target protein degradation, read-out: BRM DC50
Outline: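 Overnight compound treatment (18-20 h, final DMSO 0.1%) of SW1573 cells in DMEM with 10% FBS precedes fixation and in-cell Western staining with 800/680 nm dye-labelled secondaries. Plate images give DC50 and maximal degradation.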

T1 sequence (P51531 whole entry): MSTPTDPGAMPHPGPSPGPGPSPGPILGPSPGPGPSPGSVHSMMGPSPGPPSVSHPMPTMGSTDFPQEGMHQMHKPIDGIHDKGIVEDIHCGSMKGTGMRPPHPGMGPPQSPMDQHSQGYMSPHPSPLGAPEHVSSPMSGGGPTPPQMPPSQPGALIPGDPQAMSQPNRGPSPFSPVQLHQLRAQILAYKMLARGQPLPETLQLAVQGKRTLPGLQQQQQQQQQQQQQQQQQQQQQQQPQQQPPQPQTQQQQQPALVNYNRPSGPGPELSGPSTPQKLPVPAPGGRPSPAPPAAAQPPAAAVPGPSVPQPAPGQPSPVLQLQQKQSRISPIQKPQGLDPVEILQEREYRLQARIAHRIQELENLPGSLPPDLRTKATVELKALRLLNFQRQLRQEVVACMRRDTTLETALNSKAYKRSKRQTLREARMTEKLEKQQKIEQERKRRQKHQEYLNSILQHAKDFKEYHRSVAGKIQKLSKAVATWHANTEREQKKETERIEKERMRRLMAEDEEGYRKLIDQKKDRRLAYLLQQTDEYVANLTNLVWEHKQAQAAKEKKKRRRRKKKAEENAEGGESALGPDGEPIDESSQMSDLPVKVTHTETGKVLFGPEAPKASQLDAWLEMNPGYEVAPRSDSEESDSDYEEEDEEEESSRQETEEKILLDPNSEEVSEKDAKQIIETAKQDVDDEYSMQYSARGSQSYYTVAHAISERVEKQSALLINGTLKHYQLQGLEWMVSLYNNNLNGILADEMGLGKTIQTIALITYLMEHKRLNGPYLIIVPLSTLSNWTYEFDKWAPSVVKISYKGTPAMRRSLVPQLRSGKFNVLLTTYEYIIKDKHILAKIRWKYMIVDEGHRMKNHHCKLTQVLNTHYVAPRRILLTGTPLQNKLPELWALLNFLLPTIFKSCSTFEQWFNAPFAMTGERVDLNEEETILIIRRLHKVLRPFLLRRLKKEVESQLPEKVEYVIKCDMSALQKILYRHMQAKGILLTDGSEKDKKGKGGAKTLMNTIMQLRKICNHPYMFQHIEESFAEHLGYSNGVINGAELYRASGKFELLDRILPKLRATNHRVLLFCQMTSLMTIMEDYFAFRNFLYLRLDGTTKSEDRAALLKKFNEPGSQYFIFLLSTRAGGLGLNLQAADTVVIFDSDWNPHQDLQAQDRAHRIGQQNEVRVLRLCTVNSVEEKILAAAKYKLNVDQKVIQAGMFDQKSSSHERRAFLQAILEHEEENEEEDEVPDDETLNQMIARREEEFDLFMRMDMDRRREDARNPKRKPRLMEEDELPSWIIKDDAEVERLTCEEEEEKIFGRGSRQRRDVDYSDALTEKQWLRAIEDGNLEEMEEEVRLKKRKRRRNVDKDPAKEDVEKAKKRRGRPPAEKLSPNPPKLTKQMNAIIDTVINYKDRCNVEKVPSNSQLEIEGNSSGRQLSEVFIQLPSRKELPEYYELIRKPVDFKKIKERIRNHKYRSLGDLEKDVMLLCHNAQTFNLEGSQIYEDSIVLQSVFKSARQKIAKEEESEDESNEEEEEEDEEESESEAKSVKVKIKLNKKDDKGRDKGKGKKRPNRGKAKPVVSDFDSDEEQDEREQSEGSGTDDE

Structure (SMILES)	Dmax [%]	DC50 [nM]
Cc1nccn1-c1ccc([C@H](C)NC(=O)[C@@H]2C[C@@H](O)CN2C(=O)[C@@H](c2cc(N3CCC(OC4CCN(C[C@H]5C[C@H](Oc6cc(N7C8CCC7CN(c7cc(-c9ccccc9O)nnc7N)C8)ccn6)C5)CC4)CC3)no2)C(C)C)cc1 [compound 478, (2S,4R)-1-((2R)-2-(3-(4-((1-(((1r,3r)-3-((4-(3-(3-amino-6-(2-hydroxyphenyl)pyridazin-4-yl)-3,8-diazabicyclo[3.2.1]octan-8-yl)pyridin-2-yl)oxy)cyclobutyl)methyl)piperidin-4-yl)oxy)piperidin-1-yl)isoxazol-5-yl)-3-methylbutanoyl)-4-hydroxy-N-((S)-1-(4-(2-methyl-1H-imidazol-1-yl)phenyl)ethyl)pyrrolidine-2-carboxamide]	> 75	< 2.5
Cc1ncsc1-c1ccc([C@H](C)NC(=O)[C@@H]2C[C@@H](O)CN2C(=O)[C@H](c2cc(OC[C@@H]3C[C@H]3c3ccc(O[C@H]4C[C@H](Oc5cc(N6C7CCC6CN(c6cc(-c8ccccc8O)nnc6N)C7)ccn5)C4)cn3)no2)C(C)C)cn1 [compound 479, (2S,4R)-1-((2S)-2-(3-(((1R,2R)-2-(5-((1r,3R)-3-((4-(3-(3-amino-6-(2-hydroxyphenyl)pyridazin-4-yl)-3,8-diazabicyclo[3.2.1]octan-8-yl)pyridin-2-yl)oxy)cyclobutoxy)pyridin-2-yl)cyclopropyl)methoxy)isoxazol-5-yl)-3-methylbutanoyl)-4-hydroxy-N-((S)-1-(6-(4-methylthiazol-5-yl)pyridin-3-yl)ethyl)pyrrolidine-2-carboxamide]	–	> 30
Cc1ncsc1-c1ccc([C@H](C)NC(=O)[C@@H]2C[C@@H](O)CN2C(=O)[C@@H](c2cc(OC[C@@H]3C[C@H]3c3ccc(O[C@H]4C[C@H](Oc5cc(N6C7CCC6CN(c6cc(-c8ccccc8O)nnc6N)C7)ccn5)C4)cn3)no2)C(C)C)cn1 [compound 480, (2S,4R)-1-((2R)-2-(3-(((1R,2R)-2-(5-((1r,3R)-3-((4-(3-(3-amino-6-(2-hydroxyphenyl)pyridazin-4-yl)-3,8-diazabicyclo[3.2.1]octan-8-yl)pyridin-2-yl)oxy)cyclobutoxy)pyridin-2-yl)cyclopropyl)methoxy)isoxazol-5-yl)-3-methylbutanoyl)-4-hydroxy-N-((S)-1-(6-(4-methylthiazol-5-yl)pyridin-3-yl)ethyl)pyrrolidine-2-carboxamide]	> 75	< 2.5
Cc1cc([C@@H](C(=O)N2C[C@H](O)C[C@H]2C(=O)N[C@@H](C)c2ccc(-c3scnc3C)cc2)[C@@H](C)CO[C@H]2C[C@@H](Oc3cc(N4C5CCC4CN(c4cc(-c6ccccc6O)nnc4N)C5)ccn3)C2)on1 [compound 481, (2S,4R)-1-((2S,3R)-4-((1s,3S)-3-((4-(3-(3-amino-6-(2-hydroxyphenyl)pyridazin-4-yl)-3,8-diazabicyclo[3.2.1]octan-8-yl)pyridin-2-yl)oxy)cyclobutoxy)-3-methyl-2-(3-methylisoxazol-5-yl)butanoyl)-4-hydroxy-N-((S)-1-(4-(4-methylthiazol-5-yl)phenyl)ethyl)pyrrolidine-2-carboxamide]	> 75	< 2.5
Cc1cc([C@H](C(=O)N2C[C@H](O)C[C@H]2C(=O)N[C@@H](C)c2ccc(-c3scnc3C)cc2)[C@@H](C)CO[C@H]2C[C@@H](Oc3cc(N4C5CCC4CN(c4cc(-c6ccccc6O)nnc4N)C5)ccn3)C2)on1 [compound 482, (2S,4R)-1-((2R,3R)-4-((1s,3S)-3-((4-(3-(3-amino-6-(2-hydroxyphenyl)pyridazin-4-yl)-3,8-diazabicyclo[3.2.1]octan-8-yl)pyridin-2-yl)oxy)cyclobutoxy)-3-methyl-2-(3-methylisoxazol-5-yl)butanoyl)-4-hydroxy-N-((S)-1-(4-(4-methylthiazol-5-yl)phenyl)ethyl)pyrrolidine-2-carboxamide]	–	> 30
Cc1ncsc1-c1ccc([C@H](C)NC(=O)[C@@H]2C[C@@H](O)CN2C(=O)[C@H](c2cc(OCC(F)(F)CN3CCC(O[C@H]4C[C@H](Oc5cc(N6C7CCC6CN(c6cc(-c8ccccc8O)nnc6N)C7)ccn5)C4)CC3)no2)C(C)C)cc1 [compound 483, (2S,4R)-1-((2S)-2-(3-(3-(4-((1r,3S)-3-((4-(3-(3-amino-6-(2-hydroxyphenyl)pyridazin-4-yl)-3,8-diazabicyclo[3.2.1]octan-8-yl)pyridin-2-yl)oxy)cyclobutoxy)piperidin-1-yl)-2,2-difluoropropoxy)isoxazol-5-yl)-3-methylbutanoyl)-4-hydroxy-N-((S)-1-(4-(4-methylthiazol-5-yl)phenyl)ethyl)pyrrolidine-2-carboxamide]	–	> 30
Cc1ncsc1-c1ccc([C@H](C)NC(=O)[C@@H]2C[C@@H](O)CN2C(=O)[C@@H](c2cc(OCC(F)(F)CN3CCC(O[C@H]4C[C@H](Oc5cc(N6C7CCC6CN(c6cc(-c8ccccc8O)nnc6N)C7)ccn5)C4)CC3)no2)C(C)C)cc1 [compound 484, (2S,4R)-1-((2R)-2-(3-(3-(4-((1r,3R)-3-((4-(3-(3-amino-6-(2-hydroxyphenyl)pyridazin-4-yl)-3,8-diazabicyclo[3.2.1]octan-8-yl)pyridin-2-yl)oxy)cyclobutoxy)piperidin-1-yl)-2,2-difluoropropoxy)isoxazol-5-yl)-3-methylbutanoyl)-4-hydroxy-N-((S)-1-(4-(4-methylthiazol-5-yl)phenyl)ethyl)pyrrolidine-2-carboxamide]	> 75	< 2.5
Cc1ncsc1-c1ccc([C@H](C)NC(=O)[C@@H]2C[C@@H](O)CN2C(=O)[C@H](c2cc(OCC[C@H]3CC[C@H](O[C@H]4C[C@H](Oc5cc(N6C7CCC6CN(c6cc(-c8ccccc8O)nnc6N)C7)ccn5)C4)CC3)no2)C(C)C)cn1 [compound 485, (2S,4R)-1-((2S)-2-(3-(2-((1R,4S)-4-((1r,3S)-3-((4-(3-(3-amino-6-(2-hydroxyphenyl)pyridazin-4-yl)-3,8-diazabicyclo[3.2.1]octan-8-yl)pyridin-2-yl)oxy)cyclobutoxy)cyclohexyl)ethoxy)isoxazol-5-yl)-3-methylbutanoyl)-4-hydroxy-N-((S)-1-(6-(4-methylthiazol-5-yl)pyridin-3-yl)ethyl)pyrrolidine-2-carboxamide]	–	> 30
Cc1ncsc1-c1ccc([C@H](C)NC(=O)[C@@H]2C[C@@H](O)CN2C(=O)[C@@H](c2cc(OCC[C@H]3CC[C@H](O[C@H]4C[C@H](Oc5cc(N6C7CCC6CN(c6cc(-c8ccccc8O)nnc6N)C7)ccn5)C4)CC3)no2)C(C)C)cn1 [compound 486, (2S,4R)-1-((2R)-2-(3-(2-((1R,4R)-4-((1r,3R)-3-((4-(3-(3-amino-6-(2-hydroxyphenyl)pyridazin-4-yl)-3,8-diazabicyclo[3.2.1]octan-8-yl)pyridin-2-yl)oxy)cyclobutoxy)cyclohexyl)ethoxy)isoxazol-5-yl)-3-methylbutanoyl)-4-hydroxy-N-((S)-1-(6-(4-methylthiazol-5-yl)pyridin-3-yl)ethyl)pyrrolidine-2-carboxamide]	> 75	< 2.5
Cc1ncsc1-c1ccc([C@H](C)NC(=O)[C@@H]2C[C@@H](O)CN2C(=O)[C@H](c2cc(OCC[C@H]3CC[C@H](O[C@H]4C[C@H](Oc5cc(N6C7CCC6CN(c6cc(-c8ccccc8O)nnc6N)C7)ccn5)C4)CC3)no2)C(C)C)cc1 [compound 487, (2S,4R)-1-((2S)-2-(3-(2-((1R,4S)-4-((1r,3S)-3-((4-(3-(3-amino-6-(2-hydroxyphenyl)pyridazin-4-yl)-3,8-diazabicyclo[3.2.1]octan-8-yl)pyridin-2-yl)oxy)cyclobutoxy)cyclohexyl)ethoxy)isoxazol-5-yl)-3-methylbutanoyl)-4-hydroxy-N-((S)-1-(4-(4-methylthiazol-5-yl)phenyl)ethyl)pyrrolidine-2-carboxamide]	–	> 30
Cc1ncsc1-c1ccc([C@H](C)NC(=O)[C@@H]2C[C@@H](O)CN2C(=O)[C@@H](c2cc(OCC[C@H]3CC[C@H](O[C@H]4C[C@H](Oc5cc(N6C7CCC6CN(c6cc(-c8ccccc8O)nnc6N)C7)ccn5)C4)CC3)no2)C(C)C)cc1 [compound 488, (2S,4R)-1-((2R)-2-(3-(2-((1R,4R)-4-((1r,3R)-3-((4-(3-(3-amino-6-(2-hydroxyphenyl)pyridazin-4-yl)-3,8-diazabicyclo[3.2.1]octan-8-yl)pyridin-2-yl)oxy)cyclobutoxy)cyclohexyl)ethoxy)isoxazol-5-yl)-3-methylbutanoyl)-4-hydroxy-N-((S)-1-(4-(4-methylthiazol-5-yl)phenyl)ethyl)pyrrolidine-2-carboxamide]	> 75	< 2.5
Cc1ncsc1-c1ccc([C@H](C)NC(=O)[C@@H]2C[C@@H](O)CN2C(=O)[C@@H](c2cc(OCCN3CCC(O[C@H]4C[C@H](Oc5cc(N6C7CCC6CN(c6ccn8cc(-c9ccccc9O)nc8n6)C7)ccn5)C4)CC3)no2)C(C)C)cc1 [compound 489, (2S,4R)-4-hydroxy-1-((2R)-2-(3-(2-(4-((1r,3R)-3-((4-(3-(2-(2-hydroxyphenyl)imidazo[1,2-a]pyrimidin-7-yl)-3,8-diazabicyclo[3.2.1]octan-8-yl)pyridin-2-yl)oxy)cyclobutoxy)piperidin-1-yl)ethoxy)isoxazol-5-yl)-3-methylbutanoyl)-N-((S)-1-(4-(4-methylthiazol-5-yl)phenyl)ethyl)pyrrolidine-2-carboxamide]	–	> 30
Cc1ncsc1-c1cnc([C@H](C)NC(=O)[C@@H]2C[C@@H](O)CN2C(=O)[C@H](c2cc(OCCN3CCC(O[C@H]4C[C@H](Oc5cc(N6C7CCC6CN(c6cc(-c8ccccc8O)nnc6N)C7)ccn5)C4)CC3)no2)C(C)C)cn1 [compound 490, (2S,4R)-1-((2S)-2-(3-(2-(4-((1r,3S)-3-((4-(3-(3-amino-6-(2-hydroxyphenyl)pyridazin-4-yl)-3,8-diazabicyclo[3.2.1]octan-8-yl)pyridin-2-yl)oxy)cyclobutoxy)piperidin-1-yl)ethoxy)isoxazol-5-yl)-3-methylbutanoyl)-4-hydroxy-N-((S)-1-(5-(4-methylthiazol-5-yl)pyrazin-2-yl)ethyl)pyrrolidine-2-carboxamide]	–	> 30
